Source: paper PMC4138103 (PLoS ONE, 2014)
Read-outs that look alike come from different tables or passages of the source.

System: Sprague-Dawley rats
Test: Hematology
Assay type: in vivo, Rattus norvegicus
Design: HCT, Hematocrit: unit not given here
Conditions: for Emax: Rattus norvegicus; for Basophils / Eosinophils / HB, Hemoglobin / HCT, Hematocrit / Lymphocytes / MCH, Mean corpuscular hemoglobin / MCHC, Mean corpuscular hemoglobin concentration / MCV, Mean corpuscular volume / MPV, Mean platelet volume / Monocytes / Neutrophils / PDW, Platelet distribution width / PLT, Platelet count / RBC, Red cell count / WBC, Leukocyte total count: group mean
Method: Basic blood picture analysis was carried out using Advia 120 analyzer (Bayer, later Siemens Diagnostic Division, Dublin, Ireland). This analysis includes red cell count (RBC), hemoglobin (HB), hematocrit (HCT), platelet count (PLT), leukocyte total count (WBC) and differential count as well as the calculated red cell and platelet parameters mean corpuscular volume (MCV), mean corpuscular hemoglobin (MCH), mean corpuscular hemoglobin concentration (MCHC), red cell distribution width - standard deviation (RDW-SD), platelet distribution width (PDW) and mean platelet volume (MPV). Blood cell counting is based on isovolumetric sphering and fixing the cells, stains and light scattering. Visual leukocyte differential counting was done after May-Grünwald-Giemsa staining.
Data were also analyzed using the BMD method, which is based on dose-response modeling of the full data set using a nested family of exponential and Hill models. The analyses were done on data of males and females combined, using sex as a covariate. […] In that case, different Critical Effect Doses (CEDs) and CEDs at the lowest bound of the confidence interval (CED-L) were generated for each sex. If no difference between sexes is detected, a CED and CED-Ls for the combined data is generated. However, this was also done if the curve fits are close, and separate analyses for males and females were then performed manually. CEDs and CED-Ls were calculated at the predefined Critical Effect Size (CES) of 5% (EFSA standard) or 10%.

[1] = F, CES 5%, model E2, adipose tissue concentration based
[2] = F, CES 5%, model E3, adipose tissue concentration based
[3] = F, CES 10%, model E2, adipose tissue concentration based
[4] = F, CES 10%, model E3, adipose tissue concentration based
[5] = M, CES 5%, model E4, adipose tissue concentration based
[6] = M, CES 10%, model E4, adipose tissue concentration based
[7] = females, total dose 3 mg/kg bw, N=5
[8] = females, total dose 10 mg/kg bw, N=5
[9] = females, total dose 30 mg/kg bw, N=5
[10] = females, total dose 100 mg/kg bw, N=5
[11] = females, total dose 300 mg/kg bw, N=5
[12] = females, total dose 1000 mg/kg bw, N=5
[13] = females, total dose 1000 mg/kg bw, N=5, p<0.01 vs. control
[14] = females, total dose 1700 mg/kg bw, N=5

Clc1cc(Cl)c(-c2cc(Cl)c(Cl)c(Cl)c2Cl)cc1Cl [PCB 180, 2,2′,3′,4,4′,5,5′-heptachlorobiphenyl]
CED, Hematocrit [1]: 5430 µg/g lipid | CED, Hemoglobin [1]: 4840 µg/g lipid | CED, Red blood cell count [1]: 4170 µg/g lipid | CED-L, Hematocrit [1]: 4178 µg/g lipid | CED-L, Hemoglobin [1]: 3889 µg/g lipid | CED-L, Red blood cell count [1]: 3327 µg/g lipid | CED, Red cell distribution width - SD [2]: 8370 µg/g lipid | CED-L, Red cell distribution width - SD [2]: 5756 µg/g lipid | CED, Hematocrit [3]: 11100 µg/g lipid | CED, Hemoglobin [3]: 9930 µg/g lipid | CED, Red blood cell count [3]: 8560 µg/g lipid | CED-L, Hematocrit [3]: 8582 µg/g lipid | CED-L, Hemoglobin [3]: 7989 µg/g lipid | CED-L, Red blood cell count [3]: 6834 µg/g lipid | CED, Red cell distribution width - SD [4]: 10700 µg/g lipid | CED-L, Red cell distribution width - SD [4]: 9281 µg/g lipid | CED, Hematocrit [5]: 601 µg/g lipid | CED, Hemoglobin [5]: 872 µg/g lipid | CED, Platelet count [5]: 156 µg/g lipid | CED, Red blood cell count [5]: 598 µg/g lipid | CED-L, Hematocrit [5]: 247 µg/g lipid | CED-L, Hemoglobin [5]: 227 µg/g lipid | CED-L, Platelet count [5]: 36.4 µg/g lipid | CED-L, Red blood cell count [5]: 337 µg/g lipid | CED, Hematocrit [6]: 2090 µg/g lipid | CED, Platelet count [6]: 539 µg/g lipid | CED, Red blood cell count [6]: 1890 µg/g lipid | Emax (Erythrocyte, F, model E2, controls vs high dose according to the fitted model, read-out: Maximum response, Red blood cell count): -13% | Emax (Erythrocyte, females, controls vs high dose, fitted model, read-out: Red blood cell count, Maximum response): -12.8% | Emax (Erythrocyte, males, controls vs high dose, fitted model, read-out: Red blood cell count, Maximum response): -12.5% | Emax (Erythrocyte, model E4, controls vs high dose according to the fitted model, read-out: Maximum response, Red blood cell count): -12.4% | Emax (F, model E2, controls vs high dose according to the fitted model, read-out: Maximum response, Hematocrit): -10.1% | Emax (F, model E2, controls vs high dose according to the fitted model, read-out: Maximum response, Hemoglobin): -11.3% | Emax (F, model E3, controls vs high dose according to the fitted model, read-out: Maximum response, Red cell distribution width - SD): 11.1% | Emax (Platelet, males, controls vs high dose, fitted model, read-out: Platelet count, Maximum response): 12% | Emax (Platelet, model E4, controls vs high dose according to the fitted model, read-out: Maximum response, Platelet count): 12% | Emax (females, controls vs high dose, fitted model, read-out: Hematocrit, Maximum response): -10% | Emax (females, controls vs high dose, fitted model, read-out: Hemoglobin, Maximum response): -11.1% | Emax (females, controls vs high dose, fitted model, read-out: Red cell distribution width - SD, Maximum response): 11.5% | Emax (males, controls vs high dose, fitted model, read-out: Hematocrit, Maximum response): -11.8% | Emax (males, controls vs high dose, fitted model, read-out: Hemoglobin, Maximum response): -8.6% | Emax (model E4, controls vs high dose according to the fitted model, read-out: Maximum response, Hematocrit): -11.7% | Emax (model E4, controls vs high dose according to the fitted model, read-out: Maximum response, Hemoglobin): -8.59% | Basophils [7]: 0.0% | Eosinophils [7]: 1.2% | HB, Hemoglobin [7]: 165 g/L | HCT, Hematocrit [7]: 0.44 | Lymphocytes [7]: 88.4% | MCH, Mean corpuscular hemoglobin [7]: 23.1 pg | MCHC, Mean corpuscular hemoglobin concentration [7]: 371 g/L | MCV, Mean corpuscular volume [7]: 62.3 fL | MPV, Mean platelet volume [7]: 6.74 fL | Monocytes [7]: 2.6% | Neutrophils [7]: 7.8% | PDW, Platelet distribution width [7]: 7.26 fL | PLT, Platelet count [7]: 8.17e+11 L⁻¹ | RBC, Red cell count [7]: 7.15e+12 L⁻¹ | WBC, Leukocyte total count [7]: 1.422e+10 L⁻¹ | Basophils [8]: 0.0% | Eosinophils [8]: 0.2% | HB, Hemoglobin [8]: 166 g/L | HCT, Hematocrit [8]: 0.45 | Lymphocytes [8]: 92.0% | MCH, Mean corpuscular hemoglobin [8]: 23.0 pg | MCHC, Mean corpuscular hemoglobin concentration [8]: 372 g/L | MCV, Mean corpuscular volume [8]: 61.8 fL | MPV, Mean platelet volume [8]: 6.72 fL | Monocytes [8]: 2% | Neutrophils [8]: 5.8% | PDW, Platelet distribution width [8]: 7.20 fL | PLT, Platelet count [8]: 8.05e+11 L⁻¹ | RBC, Red cell count [8]: 7.23e+12 L⁻¹ | WBC, Leukocyte total count [8]: 1.276e+10 L⁻¹ | Basophils [9]: 0.0% | Eosinophils [9]: 1.6% | HB, Hemoglobin [9]: 165 g/L | HCT, Hematocrit [9]: 0.45 | Lymphocytes [9]: 88.8% | MCH, Mean corpuscular hemoglobin [9]: 22.9 pg | MCHC, Mean corpuscular hemoglobin concentration [9]: 368 g/L | MCV, Mean corpuscular volume [9]: 62.2 fL | MPV, Mean platelet volume [9]: 6.74 fL | Monocytes [9]: 1.4% | Neutrophils [9]: 8.2% | PDW, Platelet distribution width [9]: 7.32 fL | PLT, Platelet count [9]: 8.47e+11 L⁻¹ | RBC, Red cell count [9]: 7.22e+12 L⁻¹ | WBC, Leukocyte total count [9]: 1.544e+10 L⁻¹ | Basophils [10]: 0.0% | Eosinophils [10]: 0.8% | HB, Hemoglobin [10]: 169 g/L | HCT, Hematocrit [10]: 0.46 | Lymphocytes [10]: 90.8% | MCH, Mean corpuscular hemoglobin [10]: 22.8 pg | MCHC, Mean corpuscular hemoglobin concentration [10]: 370 g/L | MCV, Mean corpuscular volume [10]: 61.6 fL | MPV, Mean platelet volume [10]: 6.72 fL | Monocytes [10]: 1.4% | Neutrophils [10]: 7.0% | PDW, Platelet distribution width [10]: 7.14 fL | PLT, Platelet count [10]: 8.74e+11 L⁻¹ | RBC, Red cell count [10]: 7.4e+12 L⁻¹ | WBC, Leukocyte total count [10]: 1.654e+10 L⁻¹ | Basophils [11]: 0.0% | Eosinophils [11]: 1.2% | HB, Hemoglobin [11]: 166 g/L | HCT, Hematocrit [11]: 0.45 | Lymphocytes [11]: 90.6% | MCH, Mean corpuscular hemoglobin [11]: 23.1 pg | MCHC, Mean corpuscular hemoglobin concentration [11]: 371 g/L | MCV, Mean corpuscular volume [11]: 62.2 fL | MPV, Mean platelet volume [11]: 6.98 fL | Monocytes [11]: 2.2% | Neutrophils [11]: 6.0% | PDW, Platelet distribution width [11]: 7.58 fL | PLT, Platelet count [11]: 8.2e+11 L⁻¹ | RBC, Red cell count [11]: 7.19e+12 L⁻¹ | WBC, Leukocyte total count [11]: 1.448e+10 L⁻¹ | Basophils [12]: 0.0% | Eosinophils [12]: 1.2% | Lymphocytes [12]: 89.8% | MCH, Mean corpuscular hemoglobin [12]: 23.1 pg | MCHC, Mean corpuscular hemoglobin concentration [12]: 366 g/L | MCV, Mean corpuscular volume [12]: 63.2 fL | MPV, Mean platelet volume [12]: 6.74 fL | Monocytes [12]: 3.2% | Neutrophils [12]: 5.8% | PDW, Platelet distribution width [12]: 7.26 fL | PLT, Platelet count [12]: 8.69e+11 L⁻¹ | WBC, Leukocyte total count [12]: 1.392e+10 L⁻¹ | HB, Hemoglobin [13]: 154 g/L | RBC, Red cell count [13]: 6.66e+12 L⁻¹ | HCT, Hematocrit (females, total dose 1000 mg/kg bw, N=5, p<0.05 vs. control): 0.42 | Basophils [14]: 0.0% | Eosinophils [14]: 1.0% | Lymphocytes [14]: 87.6% | MCH, Mean corpuscular hemoglobin [14]: 23.3 pg | MCHC, Mean corpuscular hemoglobin concentration [14]: 366 g/L | MCV, Mean corpuscular volume [14]: 63.7 fL | MPV, Mean platelet volume [14]: 6.68 fL | Monocytes [14]: 2.2% | Neutrophils [14]: 9.2% | PDW, Platelet distribution width [14]: 7.18 fL | PLT, Platelet count [14]: 8.28e+11 L⁻¹ | WBC, Leukocyte total count [14]: 1.35e+10 L⁻¹ | HB, Hemoglobin (females, total dose 1700 mg/kg bw, N=5, p<0.001 vs. control): 150 g/L
